In one data set the target is T1, human recombinant AKR1B1 (Homo sapiens, UniProt P15121).
T1 construct: made in house
Nature of the data set: Kinetic characterization and reversibility of AKR1B1 inhibition (Morrison equation, tight binding). It counts as biochemical. The text has this: AKR1B1 activity measurements obtained at each substrate concentration were fitted by nonlinear regression analysis to the Morrison equation reported below (Equation (1)). (1) vi=1−([ET]+[I]+Kiapp)−([ET]+[I]+Kiapp)^2−4[ET][I]/2[ET]
This allowed the evaluation of Kiapp . In order to obtain the inhibition constants Ki (dissociation constant of the EI complex) and Ki′ , (dissociation constant of the EIS complex), the Kiapp values were plotted against substrate concentration and fitted by nonlinear regression analysis to the following equation:(2) Kiapp=([S]+ KM)/(KM/Ki+[S]/Ki′)
Panel A: the activity of the purified enzyme (10 mU) was measured at the indicated concentrations of avarone in the presence of the indicated L-idose concentrations. (B) Experimental data reported in (A) were fitted to the Morrison equation (see Materials and methods, Equation (1)).

The subject of another data set is C2C12 cells. Nature of the data set: Glucose uptake assay (2-NBDG, flow cytometry) in C2C12 cells. The note with it: 30 min. It counts as cell-based. The method, then: To evaluate the impact of avarone (2) on the insulin signaling pathway, C2C12 cells were plated on P35 dishes and grown until 70% confluence. Then, cells were washed with phosphate-buffered saline (PBS) and incubated for 24 h in the presence of a starvation medium (DMEM high glucose containing 2 mM glutamine, 100 U/mL of penicillin, and 100 μg/mL of streptomycin). After this time, cells were stimulated for 30 min with 10 nM insulin (Humulin R, Ely Lilly, Italy) with avarone (2) or the insulin-avarone combination. After this time, cells were washed with cold PBS and lysed using 100 µL of 1X Laemmli sample buffer solution (50 mM Tris-HCl pH 6.8, 2% SDS, 10% glycerol, 1% β-mercaptoethanol, 12.5 mM EDTA, 0.02% bromophenol blue). Cell proteins were withdrawn, transferred in an Eppendorf tube and boiled for 5 min. All samples were stored at −20 °C before the analysis. Analysis of samples was carried out using SDS-PAGE; after electrophoresis, proteins were transferred on a PVDF membrane by Western blot. Phosphorylation levels of the insulin receptor β chain and of the kinase Akt were evaluated using specific antibodies: IR β subunit, clone CT-3 (MABS65) was from Santa Cruz Biotechnology (Santa Cruz, CA, USA); pIR β subunit, Y1162/1163 (sc-25103-R) was from Merck-Millipore (Burlington, MA, USA). Akt (9272S) and p-Akt (9271S) antibodies were from Cell Signaling Technology (Danvers, MA, USA). Finally, β-actin and clone C-4 (sc-47778) were from Merck-Millipore (Burlington, MA, USA). Anti-rabbit and anti-mouse secondary antibodies were from Santa Cruz Biotechnology (Santa Cruz, CA, USA). Detection was performed using Clarity western ECL substrates (BioRad Laboratories, Inc. 1000 Alfred Nobel DriveHercules, CA, USA). Quantitation of the images obtained was carried out using iBright Analysis Software (Thermo Fisher Scientific 168 Third Avenue Waltham, MA, USA, 02451). Glucose uptake was evaluated as previously described. […] Intrinsic and 2-NBDG-derived cell fluorescences were determined using a flow cytometer (FACSCanto II, BD Biosciences, San Jose, CA, USA). […] Quantitative analysis was carried out using FlowJo software (FlowJo^TM v10. BD FlowJo™ Software for Windows Version 10. Ashland, OR: Becton, Dickinson and Company; 2021).
Figure 8 Glucose uptake assay. […] After, cells were washed with PBS, detached using trypsin, collected by centrifugation, and analyzed using a flow cytometer (FACSCanto II, BD Biosciences). […] For each experiment, 10,000 events were analyzed. […] (B) Quantitation of fluorescence levels. […]
Figure 9 Impact of cytochalasin B on avarone-induced glucose uptake. […] After, cells were washed and incubated for 3 h with 40 µM 2-NBDG and then analyzed using a flow cytometer (FACSCanto II, BD Biosciences). For each experiment, 10,000 events were analyzed. […]
A general note: A flow cytometer gives signals particle by particle.

The subject of data set [1] is human leukemia monocytic cells (THP-1). On the set-up: method as in PMID 32075136. Particulars: ref [19]; cited from earlier work.

“Also recorded” adds a separate entry of the source.

`CC1=CCC[C@H]2[C@](C)(CC3=CC(=O)C=CC3=O)[C@@H](C)CC[C@]12C` [avarone (2), avarone]: at human recombinant AKR1B1, the “type of AKR1B1 inhibition” value is ““tight binding” inhibitor; also recorded: non-competitive mixed-type inhibitor”. Also, the “Ki' (dissociation constant of the EIS complex) AKR1B1” value on human recombinant AKR1B1 (L-idose substrate, tight binding non-competitive model) was found to be 55 ± 8 nM. In addition, the inhibition constant (Ki) at human recombinant AKR1B1 (L-idose substrate, tight binding non-competitive model, read-out: Ki (dissociation constant of the EI complex) AKR1B1) was 410 ± 94 nM. In addition, the “glucose uptake (2-NBDG fluorescence), insulin-avarone combination” value in the data set with C2C12 cells (25 µM avarone + 10 nM insulin, versus insulin alone) is “significantly increase”. In the data set on C2C12 cells (25 µM avarone alone, then 40 µM 2-NBDG 3 h), the “glucose uptake (2-NBDG fluorescence)” value is on record as “higher amounts of fluorescent glucose; also recorded: stimulates glucose uptake more efficiently than insulin itself”. For the same compound, in data set [1], the “cytotoxicity THP-1” value is recorded as “not cytotoxic”.

A word on the Ki: it is the dissociation constant of the complex between target and ligand, obtained from inhibition or displacement.

The record behind these values is article PMC9964544, “Evidence of Insulin-Sensitizing and Mimetic Activity of the Sesquiterpene Quinone Avarone, a Protein Tyrosine Phosphatase 1B and Aldose Reductase Dual Targeting Agent from the Marine Sponge Dysidea avara” (Pharmaceutics, 2023).
